Assay results from patent US9163012B2, “Carbamate and urea inhibitors of 11β-hydroxysteroid dehydrogenase 1” (Vitae Pharmaceuticals, Inc., priority 2009, dated 2015).

What was measured:
Assay type in all cases: biochemical
[1] = target: T1, 11β-HSD1 (Homo sapiens (Human), UniProt P28845); assay: Biological Test Example 4: HTRF assay of 11β-HSD1 in human liver microsomes; conditions: HTRF cortisol detection
Description: In vitro inhibition of 11β-HSD1 by test compounds is determined with HTRF (Homogeneous Time-Resolved Fluorescence) technology (cisbio international, France) detecting cortisol generated from […] by human liver microsomes. […] Cortisol generated in the reaction is then detected with a competitive immunoassay, involving two HTRF conjugates: cortisol linked to XL665 and anti-cortisol antibody labeled with Europium cryptate. The incubation period for detection reaction is typically 2 hours. […] The ratio of the two emission signals is then calculated (Em665*10000/Em615). […] Each assay also contains a calibration curve with cortisol to transform the fluorescent data into cortisol concentrations. Percent inhibition (% CTL) of each compound is determined relative to the carbenoxolone signal and IC50 curves are generated.
Target sequence in this assay (P28845 whole entry): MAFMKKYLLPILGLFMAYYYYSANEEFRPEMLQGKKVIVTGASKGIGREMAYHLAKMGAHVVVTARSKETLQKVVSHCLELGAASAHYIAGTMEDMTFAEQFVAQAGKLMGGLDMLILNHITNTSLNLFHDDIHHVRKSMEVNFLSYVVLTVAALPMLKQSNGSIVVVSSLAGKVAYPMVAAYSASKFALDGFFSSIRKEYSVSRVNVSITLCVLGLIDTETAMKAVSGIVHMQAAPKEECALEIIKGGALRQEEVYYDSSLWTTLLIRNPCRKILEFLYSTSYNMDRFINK

[2] = target: T1, 11β-HSD1; assay: Biological Test Example 3: inhibition of purified recombinant 11β-HSD1 (SPA); conditions: purified recombinant 11β-HSD1 expressed in E. coli, read-out: IC50 Range
Description: The inhibition of purified 11β-HSD1 by compounds of Formula I is measured using a Scintillation Proximity Assay. All reactions are carried out at room temperature in 96 well flexible Microbeta reaction plates. First, 1 μL of a 0.1 mM solution of a compound of Formula I is mixed in DMSO diluted in half-log increments (8 points) starting at 1 μM final concentration. To this dot is added 50 μL of substrate solution (50 mM HEPES, pH 7.4, 100 mM KCl, 5 mM NaCl, 2 mM MgCl2 containing 20 μM ^3H cortisone, 1 mM NADPH). […] The reaction is then incubated for 90 minutes, and stopped by adding 50 μl of SPA bead mix (18-β-glycyrrhetinic acid, 10 μM final, 5 mg/ml protein A coated YSi SPA beads, and 1 ug/ml α-cortisol antibody (East Coast Biologics)). The plate is shaken for 120 minutes, and the radioactivity corresponding to ^3H cortisol is measured on a Wallac Microbeta.
Target sequence in this assay (P28845 whole entry, species assumed): as the sequence (P28845 whole entry) above

[3] = target: T1, 11β-HSD1; assay: Biological Test Example 1: inhibition of a microsomal preparation of 11β-HSD1 (SPA); conditions: for inhibition at 0.1 µM: read-out: Average % inhibition at 100 nM, Biological Test Example 1
Target sequence in this assay (P28845 whole entry): as above

[4] = Biological Test Example 1, microsomes from CHO cells overexpressing human 11β-HSD1, read-out: IC50 Range
[5] = Biological Test Example 1, read-out: IC50

## N#Cc1ccn([C@@H]2CCN(C(=O)OC3C4CC5CC3CC(O)(C5)C4)C2)c(=O)c1 (single isomer, unassigned; isomer 2) [Example 78 Isomer 2]
[1]
  IC50: 1170 nM

## O=C(OC1C2CC3CC(C2)CC1C3)N1CCC(N2C(=O)Cc3ccccc32)CC1 (centres unmarked) [EXAMPLE 27, 2-adamantyl 4-(2-oxoindolin-1-yl)piperidine-1-carboxylate]
[2]
  IC50: < 100 nM

## CCOC(=O)C1(Cc2ccccc2)CCCN(C(=O)OC2C3CC4CC(C3)CC2C4)C1 (centres unmarked) [EXAMPLE 13, 1-(2-adamantyl) 3-ethyl 3-benzylpiperidine-1,3-dicarboxylate]
[2]
  IC50: < 100 nM

## O=C(OC1C2CC3CC(C2)CC1C3)N1CCCC1Cc1ccccc1 (centres unmarked) [EXAMPLE 9, 2-adamantyl 2-benzylpyrrolidine-1-carboxylate]
[2]
  IC50: < 100 nM

## O=C(OC1C2CC3CC(C2)CC1C3)N1CCC(c2ccccc2)C1 (centres unmarked) [EXAMPLE 8, 2-adamantyl 3-phenylpyrrolidine-1-carboxylate]
[2]
  IC50: < 100 nM

## O=C(OC1C2CC3CC(C2)CC1C3)N1CCCC1c1ccccc1 (centres unmarked) [EXAMPLE 7, 2-adamantyl 2-phenylpyrrolidine-1-carboxylate]
[2]
  IC50: < 100 nM

## N#Cc1ccnc(O[C@@H]2CCN(C(=O)OC3C4CC5CC3CC(O)(C5)C4)C2)c1 (stereo partly drawn) [Example 79, (R)-3-(4-Cyano-hyridin-2-yloxy)-pyrrolidine-1-carboxylic acid 5-hydroxy-adamantan-2-yl ester]
[1]
  IC50: > 10000 nM

## O=C(OC1C2CC3CC(C2)CC1C3)N1CCC(Cc2ccccc2)C1 (centres unmarked) [EXAMPLE 10, 2-adamantyl 3-benzylpyrrolidine-1-carboxylate]
[2]
  IC50: < 100 nM

## Cc1ccccc1C1(CC(=O)O)CCN(C(=O)OC2C3CC4CC(C3)CC2C4)CC1 (centres unmarked) [EXAMPLE 12, 2-(1-(2-adamantyloxycarbonyl)-4-o-tolylpiperidin-4-yl)acetic acid]
[2]
  IC50: 100 to 1000 nM

## N#Cc1ccc(=O)n([C@@H]2CCN(C(=O)OC3C4CC5CC3CC(O)(C5)C4)C2)c1 (stereo partly drawn) [Example 77, (R)-3-(5-Cyano-2-oxo-2H-pyridin-1-yl)-pyrrolidine-1-carboxylic acid 5-hydroxy-adamantan-2-yl ester]
[1]
  IC50: > 10000 nM

## N#Cc1ccn([C@@H]2CCN(C(=O)OC3C4CC5CC3CC(O)(C5)C4)C2)c(=O)c1 (single isomer, unassigned; isomer 1) [Example 78 Isomer 1]
[1]
  IC50: > 10000 nM

## NC(=O)[C@]12CC3CC(C1)[C@@H](OC(=O)N1CCC(c4ncc(Cl)cn4)C1)C(C3)C2 (single isomer, unassigned) [EXAMPLE 26, trans-(1-carbamoyl-4-adamantyl) 3-(5-chloropyrimidin-2-yl)pyrrolidine-1-carboxylate]
[3]; Biological Test Example 1, 100 nM compound
  Average % inhibition at 100 nM: 94.5%
[3]; [4]
  IC50: < 100 nM
[3]; [5]
  IC50: 1.12 nM

## COC(=O)COCC1(c2ccccc2)CCN(C(=O)OC2C3CC4CC(C3)CC2C4)CC1 (centres unmarked) [EXAMPLE 15, 2-adamantyl 4-((2-methoxy-2-oxoethoxy)methyl)-4-phenylpiperidine-1-carboxylate]
[3]; Biological Test Example 1, 111 nM compound, read-out: Average % inhibition at 111 nM
  inhibition at 0.111 µM: 80.6%
[3]; [4]
  IC50: < 100 nM
[3]; [5]
  IC50: 5.39 nM

## Cn1c(=O)ccc2cc(C3CCN(C(=O)OC4C5CC6CC(C5)CC4C6)C3)ccc21 (centres unmarked) [EXAMPLE 17, 2-adamantyl 3-(1-methyl-2-oxo-1,2-dihydroquinolin-6-yl)pyrrolidine-1-carboxylate]
[3]; [4]
  IC50: < 100 nM
[3]; [5]
  IC50: 1.96 nM
[3]; 100 nM compound
  inhibition at 0.1 µM: 94.2%

## NC(=O)[C@]12CC3CC(C1)[C@@H](OC(=O)N1CC[C@H](n4c(=O)n(CCO)c5cc(F)ccc54)C1)C(C3)C2 [EXAMPLE 73, (S)-trans-1-carbamoyl-4-adamantyl 3-(5-fluoro-3-(2-hydroxyethyl)-2-oxo-2,3-dihydro-1H-benzo[d]imidazol-1-yl)pyrrolidine-1-carboxylate]
[3]; [4]
  IC50: < 100 nM
[3]; [5]
  IC50: 4.52 nM
[3]; 100 nM compound
  inhibition at 0.1 µM: 93%
